Assays:
HIV = HIV antiviral assay, inhibition of CPE in CEM cells (XTT-PMS); type: cell-based, strain HTLV-IIIB; conditions: Human immunodeficiency virus 1, CCRF-CEM, 168 h, 7 days, read-out: ID50 HIV
Experimental: (§1) Assays were performed in cell culture systems to determine the concentrations of compounds that are effective in preventing several kinds of viral infections.
(§2) HSV-1 (herpes simplex virus type 1, strain Schooler), HSV-2 (herpes simplex virus type 2, strain 186), VZV (varicella zoster virus, strain ELLEN), HCMV (human cytomegalovirus, strain AD 169), MuLV (murine leukemia virus, strain CAS), HIV (human immunodeficiency virus, strain HTLV-IIIB).
HIV antiviral assay: Suspensions of CEM(Nara and Fischinger, Nature, 332:469, 1988) cells were infected at a multiplicity of infection (e.g. virus/cell) of 0.12 with HIV (strain HTLV-III B). […] Following incubation, viable cell numbers were counted in each well using a colorimetric assay following incubation of cells with XTT-PMS solution (XTT tetrazolium reagent plus phenazine methosulfate PMS).
Percent reduction of viral cytopathic effect (CPE) in drug treated compared to untreated virus infected cells, and percent reduction of cell viability in drug treated uninfected cells compared to untreated controls were calculated and plotted versus the drug concentrations tested. From these plots, the IDso (the minimum drug concentration that inhibits CPE by 50%) for each drug was calculated.

VZV = VZV plaque reduction assay in WI-38 cells; type: cell-based, varicella zoster virus, strain ELLEN; conditions: Human alphaherpesvirus 3, 6-7 days, 37° C, read-out: ID50 VZV
Experimental: as §1, §2
(§3) HSV-1, HSV-2, HCMV, and VZV antiviral assays: Virus was adsorbed to WI-38 cell culture monolayers in 6 well culture plates (Costar, Cambridge, Mass.) for 1 hour prior to addition of maintenance medium containing duplicate dilutions of the test compound. Inhibition of plaque development was evaluated on fixed and stained monolayers after 4 days incubation at 37° C. for HSV-1 and HSV-2 and after 6-7 days incubation at 37° C. for HCMV and VZV. ID50 values were determined from the drug concentration which conferred at least a 50% plaque reduction compared to virus controls.

HSV-2 = HSV-2 plaque reduction assay in WI-38 cells; type: cell-based, herpes simplex virus type 2, strain 186; conditions: Human alphaherpesvirus 2, WI-38, 96 h, read-out: ID50 HSV-2
Experimental: as §1, §2, §3

HCMV = HCMV plaque reduction assay in WI-38 cells; type: cell-based, human cytomegalovirus, strain AD 169; conditions: Human betaherpesvirus 5, 6-7 days, 37° C, read-out: ID50 HCMV
Experimental: as §1, §2, §3

Nc1nc2c(ncn2[C@H]2C[C@@H](CO)[C@@H]2CO)c(=O)[nH]1 (relative stereo) [(1α,2β,3α)-9-[2,3-Bis(hydroxymethyl)cyclobutyl]guanine]
IC50 (HIV): 30 µM

Nc1nc2c(nnn2[C@H]2C[C@@H](CO)[C@@H]2CO)c(=O)[nH]1 (relative stereo) [(1α,2β,3α)-5-Amino-3-[2,3-bis(hydroxymethyl)cyclo-butyl]-3,6-dihydro-7H-1,2,3-triazolo[4,5-d]-pyrimidin-7-one]
IC50 (VZV): 3.8 to 38 µM

O=c1[nH]c(=O)n([C@H]2C[C@@H](CO)[C@@H]2CO)cc1I (relative stereo) [(1α,2β,3α)-1-[2,3-Bis(hydroxymethyl)cyclobutyl]-5-iodo-2,4(1H,3H)-pyrimidinedione]
IC50 (HSV-2): > 284 µM
IC50 (HCMV): > 284 µM

O=c1[nH]c(=O)n([C@H]2C[C@@H](CO)[C@@H]2CO)cc1/C=C/Br (relative stereo) [[1α(E),2β,3α]-1-[2,3-Bis(hydroxymethyl)-cyclobutyl]-5-(2-bromoethenyl)-2,4(1H,3H)-pyrimidinedione]
IC50 (HSV-2): > 302 µM
IC50 (HCMV): > 302 µM

Nc1ncnc2c1ncn2[C@H]1C[C@@H](CO)[C@@H]1CO (relative stereo) [(1α,2β,3α)-3-(6-Amino-9H-purin-9-yl)-1,2-cyclobutanedimethanol]
IC50 (HIV): 6.8 µM
